Data reported in US20140294925A1 (priority 2013, published 2014).
≈ marks a conversion by molar mass, not a printed value. Like-named read-outs stand apart in the source and are kept apart here.

Assays:
[1] = rat, in vivo, topical or ocular; cited from earlier work
[2] = rat, in vivo; cited from earlier work
[3] = tested on: Staph. aureus ATCC29213 (semi-resistant); assay: MIC determination, MHB broth microdilution (CLSI M07-A9); assay type: cell-based; conditions: Staphylococcus aureus
[4] = tested on: Staph. aureus ATCC700787 (MRSA/VISA); assay: MIC/FIC/FICI determination, MHB broth microdilution (CLSI M07-A9); assay type: cell-based; conditions: Staphylococcus aureus
[5] = tested on: VRSA (vancomycin-resistant Staphylococcus aureus); conditions: cited from earlier work
[6] = tested on: Enterococcus faecium ATCC700221 (VRE); assay: MIC/FIC/FICI determination, MHB broth microdilution (CLSI M07-A9); assay type: cell-based; conditions: single compound

Question: With rhamnolipids as the molecule, how does the “acute dermal toxicity LD50” value [1] read?
Answer: > 5000 mg/kg

Question: And the “acute oral toxicity LD50” value [2]?
Answer: > 5000 mg/kg

Question: Which results are given for `CN[C@H](CC(C)C)C(=O)N[C@H]1C(=O)N[C@@H](CC(N)=O)C(=O)N[C@H]2C(=O)N[C@H]3C(=O)N[C@H](C(=O)N[C@H](C(=O)O)c4cc(O)cc(O)c4-c4cc3ccc4O)[C@H](O)c3ccc(c(Cl)c3)Oc3cc2cc(c3O[C@@H]2O[C@H](CO)[C@@H](O)[C@H](O)[C@H]2O[C@H]2C[C@](C)(N)[C@H](O)[C@H](C)O2)Oc2ccc(cc2Cl)[C@H]1O` [vancomycin]?
Answer: MIC ([3]; ATCC29213, 24 h): 2 µg/mL (≈ 1.38 µM); MIC ([3]; ATCC29213, 48 h): 2 µg/mL (≈ 1.38 µM); MIC ([4]; 24 h): 8 µg/mL; MIC ([4]; 48 h): 8 µg/mL; MIC for vancomycin [5]: ≥ 16 µg/mL

Question: Which results are given for `CCCCCCCCCC(=O)N[C@@H](Cc1c[nH]c2ccccc12)C(=O)N[C@H](CC(N)=O)C(=O)N[C@@H](CC(=O)O)C(=O)N[C@@H]1C(=O)NCC(=O)N[C@@H](CCCN)C(=O)N[C@@H](CC(=O)O)C(=O)N[C@H](C)C(=O)N[C@@H](CC(=O)O)C(=O)NCC(=O)N[C@H](CO)C(=O)N[C@@H]([C@H](C)CC(=O)O)C(=O)N[C@@H](CC(=O)c2ccccc2N)C(=O)O[C@@H]1C` [daptomycin]?
Answer: MIC ([3]; ATCC29213, single compound, 24 hours exposure, read-out: MIC): 2 µg/mL (≈ 1.23 µM); MIC ([3]; ATCC29213, single compound, 48 hours exposure, read-out: MIC): 2 µg/mL (≈ 1.23 µM); MIC ([4]; single compound, 24 hours exposure, read-out: MIC): 4 µg/mL; MIC ([4]; single compound, 48 hours exposure, read-out: MIC): 8 µg/mL; MIC ([6]; 24 hours exposure): 8 µg/mL; MIC ([6]; 48 hours exposure): 8 µg/mL
